Active and inactive are the calls of the source. No cut-off for these calls is given here.
Tests used:
[1] = target: Fibroblast growth factor receptor 4 (Homo sapiens, UniProt P22455)
Description: Inhibition of FGFR4 (445 to 753 residues) (unknown origin) expressed in Escherichia coli

[2] = system: Huh-7; test: cells; settings: Homo sapiens
Description: Antiproliferative activity against human Huh-7 cells measured after 24 to 48 hrs by MTT assay

[3] = target: Fibroblast growth factor receptor 1 (Homo sapiens, UniProt P11362)
Description: Inhibition of FGFR1 (unknown origin)

[4] = Metabolic stability in liver microsomes (unknown origin) assessed as half life; format: ADME, Microsome
[5] = Antiproliferative activity against human L02 cells measured after 24 to 48 hrs by MTT assay; format: toxicity, cell-based
[6] = system: BaF3; test: cells; settings: Mus musculus
Description: Antiproliferative activity against mouse BaF3 cells harbouring ETV6-FGFR4-V550L mutant measured after 24 to 48 hrs by MTT assay

[7] = system: Huh-7; test: Inhibition of colony formation in human Huh-7 cells assessed as reduction in number of colonies at 270 nM measured for 12 days; format: functional, cell-based; settings: time 12.0 day
[8] = system: HepG2; test: Antiproliferative activity against human HepG2 cells measured after 24 to 48 hrs by MTT assay; format: functional, cell-based
[9] = system: BaF3; test: cells; settings: Mus musculus; remark: listed apart in the source
Description: Antiproliferative activity against mouse BaF3 cells harbouring ETV6-FGFR4-N535K mutant measured after 24 to 48 hrs by MTT assay

[10] = system: Hep 3B2; test: Antiproliferative activity against human Hep3B cells measured after 24 to 48 hrs by MTT assay; format: functional, cell-based

Sequence of Fibroblast growth factor receptor 1 (P11362 whole entry): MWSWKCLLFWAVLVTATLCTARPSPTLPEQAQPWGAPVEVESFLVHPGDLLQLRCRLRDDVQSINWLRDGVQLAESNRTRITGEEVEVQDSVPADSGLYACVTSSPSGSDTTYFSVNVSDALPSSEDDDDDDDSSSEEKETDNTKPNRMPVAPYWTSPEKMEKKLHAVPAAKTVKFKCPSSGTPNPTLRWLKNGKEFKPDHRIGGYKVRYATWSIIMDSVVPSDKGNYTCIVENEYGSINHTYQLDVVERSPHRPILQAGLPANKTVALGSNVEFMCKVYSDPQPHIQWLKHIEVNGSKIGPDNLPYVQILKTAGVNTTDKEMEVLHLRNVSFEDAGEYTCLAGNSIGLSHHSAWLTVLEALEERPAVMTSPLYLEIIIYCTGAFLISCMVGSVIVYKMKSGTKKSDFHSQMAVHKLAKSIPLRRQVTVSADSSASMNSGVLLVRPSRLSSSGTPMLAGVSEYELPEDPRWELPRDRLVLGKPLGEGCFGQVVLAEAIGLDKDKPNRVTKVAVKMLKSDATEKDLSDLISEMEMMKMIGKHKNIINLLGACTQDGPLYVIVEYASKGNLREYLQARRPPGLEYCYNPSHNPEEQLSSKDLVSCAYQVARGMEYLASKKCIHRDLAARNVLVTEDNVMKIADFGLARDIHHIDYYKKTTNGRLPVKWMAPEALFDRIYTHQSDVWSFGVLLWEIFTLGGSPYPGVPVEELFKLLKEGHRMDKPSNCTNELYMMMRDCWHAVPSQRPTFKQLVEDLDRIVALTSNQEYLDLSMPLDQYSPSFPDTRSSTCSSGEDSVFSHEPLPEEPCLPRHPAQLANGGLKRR
Sequence of Fibroblast growth factor receptor 4 (P22455 whole entry): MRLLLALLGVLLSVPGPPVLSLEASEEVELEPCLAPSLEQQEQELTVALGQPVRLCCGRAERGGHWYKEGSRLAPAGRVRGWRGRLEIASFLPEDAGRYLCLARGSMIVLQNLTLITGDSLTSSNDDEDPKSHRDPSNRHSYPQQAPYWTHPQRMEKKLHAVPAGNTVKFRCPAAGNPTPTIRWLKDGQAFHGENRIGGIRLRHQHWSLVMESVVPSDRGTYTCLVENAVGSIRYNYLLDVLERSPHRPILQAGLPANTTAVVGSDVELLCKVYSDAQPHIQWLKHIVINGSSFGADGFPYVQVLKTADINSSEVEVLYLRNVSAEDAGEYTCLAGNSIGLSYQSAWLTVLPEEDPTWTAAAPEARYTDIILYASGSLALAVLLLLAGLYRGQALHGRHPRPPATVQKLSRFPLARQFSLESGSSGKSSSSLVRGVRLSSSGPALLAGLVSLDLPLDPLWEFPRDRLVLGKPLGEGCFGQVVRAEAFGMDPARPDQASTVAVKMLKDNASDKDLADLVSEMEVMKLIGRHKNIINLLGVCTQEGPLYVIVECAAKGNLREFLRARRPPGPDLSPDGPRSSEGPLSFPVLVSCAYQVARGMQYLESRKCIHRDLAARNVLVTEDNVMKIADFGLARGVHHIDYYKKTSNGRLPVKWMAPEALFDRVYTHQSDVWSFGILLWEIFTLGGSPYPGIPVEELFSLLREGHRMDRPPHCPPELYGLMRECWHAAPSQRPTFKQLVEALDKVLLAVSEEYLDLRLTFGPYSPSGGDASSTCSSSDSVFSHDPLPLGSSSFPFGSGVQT

Row | SMILES | IC50 [1] [µM] | IC50 [2] [µM] | IC50 [3] [µM] | also measured
1 | C=CC(=O)Nc1ccccc1-c1n[nH]c2ccc(OCc3c(Cl)cncc3Cl)cc12 | 0.027 | 0.754 | > 3 | –
2 | C=CC(=O)Nc1cc2c(cc1-c1n[nH]c3ccc(O[C@H](C)c4c(Cl)cncc4Cl)cc13)CN(C(=O)OC(C)(C)C)C2 | – | 0.859 | > 3 | –
3 | C=CC(=O)Nc1ccccc1-c1n[nH]c2ccc(OCc3ccncc3)cc12 | 0.243 | > 3 | – | –
4 | C=CC(=O)Nc1ccccc1-c1n[nH]c2ccc(OC(C)c3c(Cl)cncc3Cl)cc12 (racemic) | – | 0.221 | > 3 | –
5 | C=CC(=O)Nc1ccccc1-c1n[nH]c2ccc(OC(C)c3c(F)cncc3F)cc12 (stereo not drawn) | 0.042 | 1.27 | > 3 | –
6 | C=CC(=O)Nc1cc(N2CCOCC2)ccc1-c1n[nH]c2ccc(O[C@H](C)c3c(Cl)cncc3Cl)cc12 | 0.0022 | 0.017 | > 3 | half-life [4]: 1.37 min; IC50 [5]: > 10 µM; IC50 [6]: 0.002 µM
7 | C=CC(=O)Nc1cc(N2CCN(C)CC2)ccc1-c1n[nH]c2ccc(O[C@H](C)c3c(Cl)cncc3Cl)cc12 | 0.0018 | 0.012 | > 3 | half-life [4]: 3.8 min; IC50 [5]: 3.94 µM; IC50 [6]: 0.002 µM
8 | C=CC(=O)Nc1ccc(N2CCN(C)CC2)cc1-c1n[nH]c2ccc(O[C@H](C)c3c(Cl)cncc3Cl)cc12 | 0.0021 | 0.015 | > 3 | half-life [4]: 2.41 min; IC50 [5]: 4.28 µM; IC50 [6]: 0.001 µM
9 | C=CC(=O)Nc1cc2c(cc1-c1n[nH]c3ccc(O[C@H](C)c4c(Cl)cncc4Cl)cc13)CN(S(C)(=O)=O)C2 | 0.0035 | 0.048 | > 3 | –
10 | C=CC(=O)Nc1cc2c(cc1-c1n[nH]c3ccc(O[C@H](C)c4c(Cl)cncc4Cl)cc13)CCN(CCO)C2 | 0.0026 | 0.03 | > 3 | half-life [4]: 3.04 min; IC50 [5]: > 10 µM; IC50 [6]: 0.001 µM
11 | C=CC(=O)Nc1ccccc1-c1n[nH]c2ccc(O[C@H](C)c3c(Cl)cncc3Cl)cc12 | – | 0.08 | > 3 | –
12 | C=CC(=O)N[C@H]1CCOC[C@H]1Nc1ncc2cc(-c3c(Cl)c(OC)cc(OC)c3Cl)ccc2n1 [FISOGATINIB] | 0.0039 | – | 1.03 | inhibition [7]: Active; IC50 [8]: 4.43 µM; IC50 [5]: > 10 µM; IC50 [6]: 0.396 µM; IC50 [9]: 0.528 µM; IC50 [10]: 0.046 µM
13 | C=CC(=O)Nc1cc2c(cc1-c1n[nH]c3ccc(O[C@H](C)c4c(Cl)cncc4Cl)cc13)CCN(CCOC)C2 | 0.0025 | 0.054 | > 3 | –
14 | C=CC(=O)Nc1cc2c(cc1-c1n[nH]c3ccc(O[C@H](C)c4c(Cl)cncc4Cl)cc13)CN(C)C2 | 0.0027 | 0.05 | > 3 | –
15 | C=CC(=O)Nc1cc2c(cc1-c1n[nH]c3ccc(O[C@H](C)c4c(Cl)cncc4Cl)cc13)CN(CCO)CC2 | 0.0062 | 0.275 | > 3 | –
16 | C=CC(=O)Nc1cc2c(cc1-c1n[nH]c3ccc(O[C@H](C)c4c(Cl)cncc4Cl)cc13)CN(C)CC2 | 0.0031 | 0.132 | > 3 | –
17 | C=CC(=O)Nc1ccccc1-c1n[nH]c2ccc(OC(C)c3ccncc3)cc12 (stereo not drawn) | 0.169 | > 3 | > 3 | –
18 | C=CC(=O)Nc1ccccc1-c1n[nH]c2ccc(OCc3cccnc3)cc12 | 0.083 | > 3 | > 3 | –
19 | C=CC(=O)Nc1ccc(F)cc1-c1n[nH]c2ccc(O[C@H](C)c3c(Cl)cncc3Cl)cc12 | 0.0032 | 0.324 | > 3 | –
20 | C=CC(=O)Nc1ccccc1-c1n[nH]c2ccc(OCc3ccccn3)cc12 | 0.481 | > 3 | – | –
21 | C=CC(=O)Nc1cc(F)ccc1-c1n[nH]c2ccc(O[C@H](C)c3c(Cl)cncc3Cl)cc12 | 0.0035 | 0.19 | > 3 | –
22 | C=CC(=O)Nc1cc2c(cc1-c1n[nH]c3ccc(O[C@H](C)c4c(Cl)cncc4Cl)cc13)CN(CCOC)CC2 | 0.0097 | 0.753 | > 3 | –
23 | C=CC(=O)Nc1cc2c(cc1-c1n[nH]c3ccc(O[C@H](C)c4c(Cl)cncc4Cl)cc13)CN(CCO)C2 | 0.0019 | 0.067 | > 3 | –
24 | C=CC(=O)Nc1cccc(-c2n[nH]c3ccc(O[C@H](C)c4c(Cl)cncc4Cl)cc23)c1 | 1.2 | 2.44 | > 3 | –
25 | C=CC(=O)Nc1ccccc1-c1n[nH]c2ccc(OCc3c(Cl)cccc3Cl)cc12 | 0.764 | > 3 | – | –
26 | C=CC(=O)Nc1ccc(N2CCOCC2)cc1-c1n[nH]c2ccc(O[C@H](C)c3c(Cl)cncc3Cl)cc12 | 0.0025 | 0.02 | > 3 | half-life [4]: 2.73 min; IC50 [5]: > 10 µM; IC50 [6]: 0.003 µM
27 | C=CC(=O)Nc1ccccc1-c1n[nH]c2ccc(O[C@@H](C)c3c(Cl)cncc3Cl)cc12 | – | > 3 | – | –
28 | C=CC(=O)Nc1ccccc1-c1n[nH]c2ccc(OC(C)c3c(Cl)cccc3Cl)cc12 (stereo not drawn) | 0.252 | > 3 | – | –
29 | C=CC(=O)Nc1cc2c(cc1-c1n[nH]c3ccc(O[C@H](C)c4c(Cl)cncc4Cl)cc13)CN(CCOC)C2 | 0.0032 | 0.193 | > 3 | –

Source: ChEMBL document CHEMBL5620430, “Design, synthesis and biological evaluation of indazole derivatives as selective covalent inhibitors of FGFR4 in wild-type and gatekeeper mutants” (Eur J Med Chem, 2023)
